In ChEMBL document CHEMBL1201862, “PubChem BioAssay data set” (2004):
Blank lines part the entries; values can stand above or below the compound they belong to. The source made the active and inactive calls.

Legend:
[1] = biological target: T1, Ubiquitin-conjugating enzyme E2 N (Homo sapiens, UniProt P61088); format: functional;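 note: Dose-response confirmation in a TR-FRET assay detecting UBC13-driven polyubiquitin chain formation, inhibition measured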
T1 sequence (P61088 whole entry): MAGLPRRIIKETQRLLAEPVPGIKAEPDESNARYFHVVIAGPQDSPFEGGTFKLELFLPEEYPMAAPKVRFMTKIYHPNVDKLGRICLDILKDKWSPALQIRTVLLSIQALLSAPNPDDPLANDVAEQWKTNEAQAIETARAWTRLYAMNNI

[2] = biological target: 26S proteasome non-ATPase regulatory subunit 14 (Homo sapiens, UniProt O00487); assay: inhibition of proteasome subunit RPN11 – biochemical, fluorescence polarization, uHTS hits, confirmation (AID 602368); format: functional
[3] = biological target: 72 kDa type IV collagenase (Homo sapiens, UniProt P08253); assay: Dose Response validation of uHTS RPN11 inhibitor hits using a MMP-2 Fluorescence assay.; format: functional
Prothrombin = Prothrombin (Bos taurus, UniProt P00735); assay: thrombin inhibition, dose response, biochemical, fluorescence polarization, uHTS hits (AID 602369); format: functional
[4] = biological target: Benomyl/methotrexate resistance protein (Candida albicans, UniProt P28873); assay: CaMdr1 efflux pump inhibitor potency, dose response, singleplex, Cherry Pick1 hits (AID 588608); format: functional
[5] = biological target: Multidrug resistance protein CDR1 (Candida albicans, UniProt P43071); assay: CaCDR1 efflux pump inhibitors in yeast, dose response, S. cerevisiae AD1-8u, singleplex, Cherry Pick1 hits (AID 588606); format: functional
[6] = inhibitors of intracellular T. cruzi replication, confirmation, NIH3T3 host cells, beta-gal luminescence (AID 2044); format: functional, cell-based;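 note: intracellular parasites grown in NIH/3T3 mouse fibroblasts as host cells; luminescent beta-galactosidase reporter signal from transgenic T. cruzi replicating inside host cells; inhibitors lower the luminescence signal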
[7] = cytotoxicity toward NIH3T3 fibroblasts, dose response, counter-screen, cell-based, ATP luminescence, mouse fibroblasts (AID 2010); format: functional;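 note: cells exposed to compound for about 90 hours before reading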
[8] = cytotoxicity in HEK-293T cells, dose response, cytotoxicity control for BCR NF-kB inhibitor project, luminescence, B-cell screen hits (AID 489021); format: functional, cell-based;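 note: HEK-293T cells carrying an NF-kB luciferase reporter; cells exposed to compound for about 14 hours before viability readout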
INS1 [9] = assay: beta cell apoptosis inhibitors, cytokine rescue, dose response, luminescence, retest (AID 449756); format: functional, cell-based; settings: Rattus norvegicus;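 note: cell death triggered by IL-1 beta plus TNF-alpha plus IFN-gamma mixture; protective hits raise ATP signal compared with cytokine alone wells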
[10] = biological target: T2, High affinity choline transporter 1 (Homo sapiens, UniProt Q9GZV3); assay: CHT activators, dose response, cell-based, 10-point CRC, membrane potential dye (AID 602376); format: functional
T2 sequence (Q9GZV3 whole entry): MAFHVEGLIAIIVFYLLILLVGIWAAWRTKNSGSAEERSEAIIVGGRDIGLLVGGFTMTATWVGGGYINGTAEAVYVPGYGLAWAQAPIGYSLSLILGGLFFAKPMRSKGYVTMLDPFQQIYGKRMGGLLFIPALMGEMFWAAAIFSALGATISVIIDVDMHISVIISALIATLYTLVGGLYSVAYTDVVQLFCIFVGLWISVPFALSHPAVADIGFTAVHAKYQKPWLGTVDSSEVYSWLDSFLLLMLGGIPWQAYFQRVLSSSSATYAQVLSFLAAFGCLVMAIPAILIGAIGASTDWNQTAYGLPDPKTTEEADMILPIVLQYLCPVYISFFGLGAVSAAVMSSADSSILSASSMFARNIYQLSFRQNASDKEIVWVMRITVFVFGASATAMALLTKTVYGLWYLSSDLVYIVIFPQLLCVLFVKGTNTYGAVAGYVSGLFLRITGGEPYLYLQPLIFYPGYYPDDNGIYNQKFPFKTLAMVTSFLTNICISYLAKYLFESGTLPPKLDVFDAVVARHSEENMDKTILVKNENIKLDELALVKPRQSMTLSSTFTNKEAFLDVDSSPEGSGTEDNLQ

Vero = assay: West Nile virus antiviral activity, cell-based, CPE readout (AID 1621); format: functional; settings: Chlorocebus sabaeus
[11] = biological target: T3, Protein disulfide-isomerase (Homo sapiens, UniProt P07237); assay: PDI inhibitors, insulin aggregation turbidity, dose response, biochemical, absorbance, cherry-picked samples (AID 602350); format: functional
[12] = HeLa cell cytotoxicity, dose response, cytotoxicity control, ATP luminescence, dry powder (AID 652117); format: functional, cell-based
[13] = biological target: T3, Protein disulfide-isomerase; assay: PDI inhibitors, insulin turbidity readout, confirmation, biochemical, dry powder samples, set 2 (AID 652146)
INS1 [14] = assay: protection of INS-1E cells from cytokine death, dose response, ATP luminescence, dry powder (AID 488844); format: functional, cell-based; settings: Rattus norvegicus
[15] = inhibitors of cytokine-induced nitrite release, dose response, cell-based, Griess absorbance, INS-1E, dry powder, set 3 (AID 488870); format: functional; settings: Rattus norvegicus
INS1 [16] = assay: inhibitors of cytokine-induced nitrite release, dose response, cell-based, Griess absorbance, INS-1E, dry powder, set 2 (AID 488868); format: functional; settings: Rattus norvegicus
[17] = biological target: Tyrosine-protein kinase Lck (Homo sapiens, UniProt P06239); format: functional;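 note: lck was assayed as one member of a kinase panel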
[18] = biological target: Mast/stem cell growth factor receptor Kit (Homo sapiens, UniProt P10721); format: functional;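 note: KIT entry within a kinase panel assay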
[19] = biological target: Tyrosine-protein kinase Lyn (Homo sapiens, UniProt P07948); format: functional;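 note: lyn as one member of a kinase panel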
[20] = biological target: Tyrosine-protein kinase Blk (Homo sapiens, UniProt P51451); format: functional;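 note: obtained as one member of a kinome-wide kinase assay panel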
[21] = biological target: Proto-oncogene tyrosine-protein kinase Src (Homo sapiens, UniProt P12931); format: functional;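 note: SRC entry within a kinome-wide kinase profiling panel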
[22] = biological target: T4, Receptor-type tyrosine-protein kinase FLT3 (Homo sapiens, UniProt P36888); format: functional;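 note: FLT3 was tested as one member of a kinome-wide kinase panel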
T4 sequence (P36888 whole entry): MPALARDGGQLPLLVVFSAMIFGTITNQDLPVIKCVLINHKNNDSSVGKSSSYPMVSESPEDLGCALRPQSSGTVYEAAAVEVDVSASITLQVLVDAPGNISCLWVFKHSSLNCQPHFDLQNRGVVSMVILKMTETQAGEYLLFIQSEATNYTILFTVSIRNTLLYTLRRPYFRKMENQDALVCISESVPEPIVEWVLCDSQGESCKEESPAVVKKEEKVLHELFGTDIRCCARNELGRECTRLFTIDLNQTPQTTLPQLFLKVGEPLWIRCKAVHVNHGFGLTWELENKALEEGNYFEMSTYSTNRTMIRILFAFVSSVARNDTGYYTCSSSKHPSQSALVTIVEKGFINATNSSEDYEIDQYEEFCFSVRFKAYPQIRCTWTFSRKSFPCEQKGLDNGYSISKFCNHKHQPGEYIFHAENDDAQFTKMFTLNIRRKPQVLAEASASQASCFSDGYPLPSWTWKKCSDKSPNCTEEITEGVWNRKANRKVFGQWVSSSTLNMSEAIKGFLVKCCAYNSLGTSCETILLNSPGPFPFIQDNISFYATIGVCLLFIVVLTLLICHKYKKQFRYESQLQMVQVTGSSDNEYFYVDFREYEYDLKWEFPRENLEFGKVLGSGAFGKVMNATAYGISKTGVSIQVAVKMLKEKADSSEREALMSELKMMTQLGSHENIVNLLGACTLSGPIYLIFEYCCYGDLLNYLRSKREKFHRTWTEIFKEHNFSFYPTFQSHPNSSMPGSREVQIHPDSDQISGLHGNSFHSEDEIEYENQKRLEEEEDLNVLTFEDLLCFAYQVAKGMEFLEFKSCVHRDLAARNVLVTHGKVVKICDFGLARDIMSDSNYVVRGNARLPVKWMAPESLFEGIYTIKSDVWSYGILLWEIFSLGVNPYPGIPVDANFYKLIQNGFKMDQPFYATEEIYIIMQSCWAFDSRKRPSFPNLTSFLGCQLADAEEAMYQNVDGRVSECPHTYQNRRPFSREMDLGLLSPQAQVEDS

[23] = biological target: Tyrosine-protein kinase ABL1 (Homo sapiens, UniProt P00519); format: functional
[24] = biological target: Vascular endothelial growth factor receptor 2 (Homo sapiens, UniProt P35968); format: functional
[25] = biological target: Vascular endothelial growth factor receptor 3 (Homo sapiens, UniProt P35916); format: functional;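 note: value from a kinome-wide profiling panel, with FLT4 as the panel member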
[26] = biological target: Tyrosine-protein kinase Fyn (Homo sapiens, UniProt P06241); format: functional
[27] = biological target: Vascular endothelial growth factor receptor 1 (Homo sapiens, UniProt P17948); format: functional;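 note: measured within a kinome-wide profiling panel, FLT1 as the panel member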
[28] = biological target: Macrophage colony-stimulating factor 1 receptor (Homo sapiens, UniProt P07333); format: functional;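 note: value comes from the Navigating the Kinome screening panel, CSF1R member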
[29] = biological target: Neuropeptides B/W receptor type 1 (Homo sapiens, UniProt P48145); assay: GPR7 antagonist potency, late-stage follow-up, cell-based, fluorescence, dose response, set 5 (AID 588566); format: functional
[30] = biological target: Melanin-concentrating hormone receptor 1 (Homo sapiens, UniProt Q99705); assay: Late-stage fluorescence-based counterscreen for antagonists of the G-protein coupled receptor 7 (GPR7): cell-based dose response assay to identify antagonists of the melanin-concentrating hormone receptor 1 (MCHR1) Set 5.; format: functional
Sequence of Melanin-concentrating hormone receptor 1 (Q99705 whole entry): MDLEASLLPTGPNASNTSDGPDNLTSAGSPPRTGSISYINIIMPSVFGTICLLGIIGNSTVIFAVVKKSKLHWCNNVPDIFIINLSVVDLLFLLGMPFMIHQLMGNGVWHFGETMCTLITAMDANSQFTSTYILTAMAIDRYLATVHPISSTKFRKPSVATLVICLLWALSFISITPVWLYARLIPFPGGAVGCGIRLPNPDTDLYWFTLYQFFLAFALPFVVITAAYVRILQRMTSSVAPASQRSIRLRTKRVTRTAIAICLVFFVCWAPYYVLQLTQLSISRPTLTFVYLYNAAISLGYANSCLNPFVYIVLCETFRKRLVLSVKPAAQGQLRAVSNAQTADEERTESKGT

T3 sequence (P07237 whole entry): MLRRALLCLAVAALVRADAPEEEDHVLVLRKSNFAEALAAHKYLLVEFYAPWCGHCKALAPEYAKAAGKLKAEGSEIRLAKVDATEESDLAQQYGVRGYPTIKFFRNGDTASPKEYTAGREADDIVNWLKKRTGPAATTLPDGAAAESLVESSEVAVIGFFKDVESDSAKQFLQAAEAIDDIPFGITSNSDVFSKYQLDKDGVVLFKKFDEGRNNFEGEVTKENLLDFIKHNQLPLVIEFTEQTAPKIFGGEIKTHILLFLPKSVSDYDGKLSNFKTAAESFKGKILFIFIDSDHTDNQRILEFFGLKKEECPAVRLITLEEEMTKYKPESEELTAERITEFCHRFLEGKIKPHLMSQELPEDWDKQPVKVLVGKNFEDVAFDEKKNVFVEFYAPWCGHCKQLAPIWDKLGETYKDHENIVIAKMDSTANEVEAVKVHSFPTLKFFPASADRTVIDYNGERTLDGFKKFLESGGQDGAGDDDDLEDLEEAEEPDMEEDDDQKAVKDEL
Sequence of Benomyl/methotrexate resistance protein (P28873 whole entry): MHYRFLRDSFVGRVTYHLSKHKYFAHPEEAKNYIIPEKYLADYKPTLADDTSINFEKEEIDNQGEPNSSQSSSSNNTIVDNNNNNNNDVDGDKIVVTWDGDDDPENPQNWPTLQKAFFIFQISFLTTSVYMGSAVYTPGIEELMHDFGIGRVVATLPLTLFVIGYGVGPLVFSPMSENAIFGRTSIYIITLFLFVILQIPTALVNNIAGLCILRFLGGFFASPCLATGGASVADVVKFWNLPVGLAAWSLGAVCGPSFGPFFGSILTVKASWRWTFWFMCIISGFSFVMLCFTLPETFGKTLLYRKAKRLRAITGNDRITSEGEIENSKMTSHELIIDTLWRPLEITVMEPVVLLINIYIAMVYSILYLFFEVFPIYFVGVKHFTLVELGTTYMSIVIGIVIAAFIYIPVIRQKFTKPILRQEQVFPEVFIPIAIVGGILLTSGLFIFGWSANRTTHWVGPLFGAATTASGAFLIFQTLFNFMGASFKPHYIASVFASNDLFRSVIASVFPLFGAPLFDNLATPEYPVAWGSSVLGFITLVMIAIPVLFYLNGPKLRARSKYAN
Sequence of Tyrosine-protein kinase Blk (P51451 whole entry): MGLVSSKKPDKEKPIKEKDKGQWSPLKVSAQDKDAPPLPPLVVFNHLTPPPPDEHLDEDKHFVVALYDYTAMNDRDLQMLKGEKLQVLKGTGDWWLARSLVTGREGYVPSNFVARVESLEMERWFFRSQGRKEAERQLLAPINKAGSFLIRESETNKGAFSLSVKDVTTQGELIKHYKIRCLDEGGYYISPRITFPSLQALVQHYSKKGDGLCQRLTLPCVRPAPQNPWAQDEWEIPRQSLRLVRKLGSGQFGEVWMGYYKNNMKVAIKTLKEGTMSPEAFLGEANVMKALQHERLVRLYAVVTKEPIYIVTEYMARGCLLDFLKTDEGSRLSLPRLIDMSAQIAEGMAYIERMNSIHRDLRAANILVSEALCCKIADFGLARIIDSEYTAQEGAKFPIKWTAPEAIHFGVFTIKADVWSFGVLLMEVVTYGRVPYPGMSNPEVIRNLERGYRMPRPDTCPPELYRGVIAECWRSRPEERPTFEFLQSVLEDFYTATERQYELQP
Sequence of Tyrosine-protein kinase Lck (P06239 whole entry): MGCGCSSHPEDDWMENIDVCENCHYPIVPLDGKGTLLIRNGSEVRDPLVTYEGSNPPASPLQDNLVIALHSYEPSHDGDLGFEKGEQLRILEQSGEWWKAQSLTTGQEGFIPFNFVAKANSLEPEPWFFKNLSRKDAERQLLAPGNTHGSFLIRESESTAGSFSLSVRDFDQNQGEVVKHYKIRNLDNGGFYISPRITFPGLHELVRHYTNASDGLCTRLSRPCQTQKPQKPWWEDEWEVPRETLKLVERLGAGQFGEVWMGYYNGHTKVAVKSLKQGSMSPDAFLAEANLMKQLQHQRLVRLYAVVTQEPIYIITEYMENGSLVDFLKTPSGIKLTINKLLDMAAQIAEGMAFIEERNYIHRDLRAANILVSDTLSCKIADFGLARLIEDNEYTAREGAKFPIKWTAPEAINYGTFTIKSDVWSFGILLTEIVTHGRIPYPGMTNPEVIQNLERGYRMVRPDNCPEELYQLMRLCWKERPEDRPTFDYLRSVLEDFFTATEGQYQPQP
Sequence of Proto-oncogene tyrosine-protein kinase Src (P12931 2-536 limits assumed): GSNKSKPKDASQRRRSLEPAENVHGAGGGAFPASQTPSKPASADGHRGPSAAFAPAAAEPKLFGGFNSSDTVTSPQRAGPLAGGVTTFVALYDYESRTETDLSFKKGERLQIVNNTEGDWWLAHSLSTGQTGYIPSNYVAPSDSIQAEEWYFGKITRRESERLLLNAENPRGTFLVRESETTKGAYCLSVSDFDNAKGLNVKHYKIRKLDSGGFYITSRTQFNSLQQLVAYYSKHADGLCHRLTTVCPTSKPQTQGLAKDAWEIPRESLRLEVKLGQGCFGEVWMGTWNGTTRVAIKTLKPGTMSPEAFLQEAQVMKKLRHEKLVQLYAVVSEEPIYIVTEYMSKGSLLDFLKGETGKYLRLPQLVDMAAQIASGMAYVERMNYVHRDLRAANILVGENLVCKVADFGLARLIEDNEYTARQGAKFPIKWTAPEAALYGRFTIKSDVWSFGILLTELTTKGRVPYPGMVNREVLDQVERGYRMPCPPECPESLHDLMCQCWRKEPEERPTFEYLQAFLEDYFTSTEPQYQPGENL
Sequence of Macrophage colony-stimulating factor 1 receptor (P07333 whole entry): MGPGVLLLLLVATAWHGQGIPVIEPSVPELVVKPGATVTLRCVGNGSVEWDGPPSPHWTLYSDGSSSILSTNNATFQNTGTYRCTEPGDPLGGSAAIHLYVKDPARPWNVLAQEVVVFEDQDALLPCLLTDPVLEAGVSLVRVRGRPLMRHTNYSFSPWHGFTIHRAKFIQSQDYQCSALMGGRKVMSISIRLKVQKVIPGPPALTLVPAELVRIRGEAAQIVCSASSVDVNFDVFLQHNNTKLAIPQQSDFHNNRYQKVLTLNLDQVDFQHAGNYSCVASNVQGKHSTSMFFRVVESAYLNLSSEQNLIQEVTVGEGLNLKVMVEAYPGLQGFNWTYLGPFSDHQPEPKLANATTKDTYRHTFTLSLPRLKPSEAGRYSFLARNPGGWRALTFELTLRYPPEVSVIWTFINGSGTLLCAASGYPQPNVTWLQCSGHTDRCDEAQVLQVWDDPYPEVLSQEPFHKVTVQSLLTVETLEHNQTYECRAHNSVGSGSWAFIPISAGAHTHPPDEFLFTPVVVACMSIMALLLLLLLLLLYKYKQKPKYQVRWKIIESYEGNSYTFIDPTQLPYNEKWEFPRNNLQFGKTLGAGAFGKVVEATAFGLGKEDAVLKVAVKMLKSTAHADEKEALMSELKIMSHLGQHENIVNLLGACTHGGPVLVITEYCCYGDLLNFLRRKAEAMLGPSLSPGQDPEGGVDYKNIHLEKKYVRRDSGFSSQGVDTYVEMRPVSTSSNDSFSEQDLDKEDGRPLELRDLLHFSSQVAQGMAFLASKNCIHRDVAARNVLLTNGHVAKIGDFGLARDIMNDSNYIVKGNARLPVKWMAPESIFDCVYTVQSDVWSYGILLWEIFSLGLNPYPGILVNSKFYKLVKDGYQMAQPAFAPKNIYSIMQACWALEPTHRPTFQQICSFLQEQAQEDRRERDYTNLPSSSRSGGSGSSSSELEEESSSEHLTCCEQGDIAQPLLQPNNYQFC
Sequence of Mast/stem cell growth factor receptor Kit (P10721 whole entry): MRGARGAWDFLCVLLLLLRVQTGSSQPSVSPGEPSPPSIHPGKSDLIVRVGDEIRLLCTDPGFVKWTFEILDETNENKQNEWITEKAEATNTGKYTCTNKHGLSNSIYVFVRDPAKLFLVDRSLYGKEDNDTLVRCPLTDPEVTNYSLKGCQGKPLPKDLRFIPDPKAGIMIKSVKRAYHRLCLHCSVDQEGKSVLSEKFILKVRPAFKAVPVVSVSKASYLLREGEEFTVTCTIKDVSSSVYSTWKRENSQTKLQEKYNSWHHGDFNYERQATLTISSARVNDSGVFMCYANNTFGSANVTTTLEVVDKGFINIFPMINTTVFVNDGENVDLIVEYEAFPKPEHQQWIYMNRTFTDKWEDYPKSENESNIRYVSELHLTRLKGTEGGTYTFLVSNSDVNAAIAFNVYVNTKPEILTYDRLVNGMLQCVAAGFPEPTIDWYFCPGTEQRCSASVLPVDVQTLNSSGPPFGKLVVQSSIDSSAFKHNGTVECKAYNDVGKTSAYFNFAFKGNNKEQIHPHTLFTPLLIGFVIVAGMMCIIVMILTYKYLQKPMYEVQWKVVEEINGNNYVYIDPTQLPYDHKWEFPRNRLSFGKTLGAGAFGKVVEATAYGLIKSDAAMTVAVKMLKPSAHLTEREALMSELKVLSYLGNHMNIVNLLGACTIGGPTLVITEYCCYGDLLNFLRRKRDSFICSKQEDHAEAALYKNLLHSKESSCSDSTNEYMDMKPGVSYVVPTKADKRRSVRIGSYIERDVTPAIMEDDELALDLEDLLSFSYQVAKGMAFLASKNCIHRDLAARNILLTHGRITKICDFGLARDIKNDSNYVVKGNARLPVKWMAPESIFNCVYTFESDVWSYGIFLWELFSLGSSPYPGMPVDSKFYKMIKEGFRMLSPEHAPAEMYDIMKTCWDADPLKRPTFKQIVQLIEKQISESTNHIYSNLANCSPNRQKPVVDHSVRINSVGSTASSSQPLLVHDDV

- IC50 [1]: > 20 µM (inactive)
- IC50 [2]: 65.6 µM (active)
- IC50 [3]: > 100 µM (inactive)
- IC50 (Prothrombin): 80.6 µM (active)
SMILES: CC(=O)n1cc([C@H]2C=C(C(=O)Nc3ccccc3)O[C@@H](OCc3ccc(CO)cc3)C2)c2ccccc21

SMILES: CC(C)C(=O)N1CCC2(CC1)Oc1ccc(F)cc1C(=O)C21CC(c2ccc(Cl)cc2)=NO1 (configuration not stated)
- EC50 [4]: 31.7 µM (active)
- EC50 [5]: 12.6 µM (active)

SMILES: CCOc1ccc(-c2cn3c([n+]2-c2ccccc2)CCCCC3)cc1
- EC50 [6]: 0.463 µM (active)
- EC50 [7]: 15.1 µM (active)
- IC50 [8]: > 80 µM (inactive)
- AC50 (INS1 [9]): 0.998 µM (active)
- EC50 [10]: 6.83 µM (active)

SMILES: CCOC(=O)c1c(CN2CCN(CCO)CC2)n(-c2ccccc2)c2cc(Br)c(O)cc12
- IC50 (Vero): 20.2 µM (active)
- AC50 [11]: 0.61 µM (active)
- AC50 [12]: > 52 µM (inactive)
- AC50 [13]: 2 µM (active)

SMILES: C[C@@H]1CN([C@H](C)CO)C(=O)c2cccc(NC(=O)Nc3cccc4ccccc34)c2O[C@H]1CN(C)S(=O)(=O)c1ccc(Cl)cc1
- AC50 (INS1 [14]): 187 µM (active)
- AC50 [15]: 112 µM (active)
- AC50 (INS1 [16]): 48.5 µM (active)

- Ki [17]: 0.0316 µM (active)
- Ki [18]: 0.00158 µM (active)
- Ki [19]: 0.0631 µM (active)
- Ki [20]: 0.0158 µM (active)
- Ki [21]: 0.126 µM (active)
- Ki [22]: 0.00126 µM (active)
- Ki [23]: 0.2 µM (active)
- Ki [24]: 0.001 µM (active)
- Ki [25]: 0.0126 µM (active)
- Ki [26]: 0.0794 µM (active)
- Ki [27]: 0.000631 µM (active)
- Ki [28]: 0.00501 µM (active)
SMILES: COc1ccc(-c2ccc(NC(=O)Nc3ccc(OC(F)(F)F)cc3)cc2)c2c(N)noc12

- IC50 [29]: 4.04 µM (active)
- IC50 [30]: 7.64 µM (active)
SMILES: COc1ccc(Oc2c(F)cnn(-c3cccc(C)c3)c2=O)cc1
